Data taken from publication PMC8286840, “Identifying SARS-CoV-2 antiviral compounds by screening for small molecule inhibitors of Nsp3 papain-like protease” (Biochemical Journal, 2021).
Counter-ions that a name gives are not always drawn. Like-named read-outs stand apart in the source and are kept apart here. Where a SMILES comes first, the peptide text is derived from it.

Legend:
[1] = target: T1, SARS-CoV-2 PLpro (nsp3 1564–1878) (Severe acute respiratory syndrome coronavirus 2, UniProt P0DTD1); assay: biochemical; parameters: FRET-quenched peptide (Pro3) cleavage by PLpro, 10 min pre-incubation, slope over 20 min, normalised to no-compound control; settings: high concentration screen, read-out: % of control remaining
[2] = target: T1, SARS-CoV-2 PLpro (nsp3 1564–1878); assay: biochemical; parameters: FRET-quenched peptide (Pro3) cleavage by PLpro, 10 min pre-incubation, slope over 20 min, normalised to no-compound control; settings: low concentration screen, read-out: % of control remaining

NS(=O)(=O)c1ccc(NC2=CC(=O)c3ccccc3C2=O)cc1 [ML329]
remaining activity at 3.75 µM ([1]; Well no.=8264): 90.3% | remaining activity at 1.25 µM ([2]; Well no.=8264): 91.6%

CCOC(=O)C1=Cc2ccc(C(F)(F)C(F)(F)F)cc2N=C(N)C1 [Toll-like receptor modulator]
remaining activity at 3.75 µM ([1]; Well no.=8077): 95.6% | remaining activity at 1.25 µM ([2]; Well no.=8077): 108%

Oc1ccc(/C=C/c2cc(O)cc(O)c2)cc1 [Resveratrol]
remaining activity at 3.75 µM ([1]; Well no.=1492): 95.7% | remaining activity at 3.75 µM ([1]; Well no.=3130): 102% | remaining activity at 3.75 µM ([1]; Well no.=3847): 101% | remaining activity at 1.25 µM ([2]; Well no.=1492): 94.9% | remaining activity at 1.25 µM ([2]; Well no.=3130): 101% | remaining activity at 1.25 µM ([2]; Well no.=3847): 103%

O=C(/C=C/c1ccc(O)c(O)c1)c1ccc(O[C@@H]2O[C@H](CO)[C@@H](O)[C@H](O)[C@H]2O)c(O)c1O [Marein]
remaining activity at 3.75 µM ([1]; Well no.=3731): 95.9% | remaining activity at 1.25 µM ([2]; Well no.=3731): 91.7%

N[C@@H](Cc1c[nH]c2ccc(O)cc12)C(=O)O [5-Hydroxy-L-tryptophan]
remaining activity at 3.75 µM ([1]; Well no.=712): 98.5% | remaining activity at 1.25 µM ([2]; Well no.=712): 91.8%

COc1ccc(-c2nc(-c3cc(C(F)(F)F)cc(C(F)(F)F)c3)n(Cc3ccc(C(N)=O)cc3)c2-c2ccc(OC)cc2)cc1 [Apoptozole]
remaining activity at 3.75 µM ([1]; Well no.=6596): 92.9% | remaining activity at 3.75 µM ([1]; Well no.=8536): 90.1% | remaining activity at 1.25 µM ([2]; Well no.=6596): 102% | remaining activity at 1.25 µM ([2]; Well no.=8536): 98.3%

Cc1ccccc1CNc1ncnc2c1ncn2[C@@H]1O[C@H](CO)[C@@H](O)[C@H]1O [Metrifudil]
remaining activity at 3.75 µM ([1]; Well no.=851): 96.8% | remaining activity at 1.25 µM ([2]; Well no.=851): 95.7%

C[C@H]1CCC/C=C/[C@@H]2C[C@H](O)C[C@H]2[C@H](O)/C=C/C(=O)O1 [Brefeldin A]
remaining activity at 3.75 µM ([1]; Well no.=3093): 100% | remaining activity at 1.25 µM ([2]; Well no.=3093): 101%

COc1cc(NS(C)(=O)=O)ccc1Nc1c2ccccc2nc2ccccc12 [Amsacrine hydrochloride]
remaining activity at 3.75 µM ([1]; Well no.=346): 103% | remaining activity at 1.25 µM ([2]; Well no.=346): 97.8%

CCC(=O)O[C@@H](O[P@](=O)(CCCCc1ccccc1)CC(=O)N1C[C@H](C2CCCCC2)C[C@H]1C(=O)O)C(C)C [Fosinopril (sodium)]
remaining activity at 3.75 µM ([1]; Well no.=8750): 94.7% | remaining activity at 1.25 µM ([2]; Well no.=8750): 93.5%

OC[C@H](O)C(O)[C@@H](O)CO [L-Arabinitol]
remaining activity at 3.75 µM ([1]; Well no.=6789): 93.7% | remaining activity at 1.25 µM ([2]; Well no.=6789): 93.2%

O=C(O)[C@]1(Cc2cccc(Nc3nccs3)n2)CC[C@@H](Oc2cccc(Cl)c2F)CC1 [MK-5108 (VX-689)]
remaining activity at 3.75 µM ([1]; Well no.=4733): 97.2% | remaining activity at 1.25 µM ([2]; Well no.=4733): 101%

CC(C)[C@H](N)C(=O)N[C@@H](Cc1ccccc1)C(=O)O [L-Valyl-L-phenylalanine] (H-Val-Phe-OH)
remaining activity at 3.75 µM ([1]; Well no.=8650): 101% | remaining activity at 1.25 µM ([2]; Well no.=8650): 103%

Nc1ccc(S(=O)(=O)Nc2ccc(Cl)nn2)cc1 [Sulfachloropyridazine]
remaining activity at 3.75 µM ([1]; Well no.=8360): 92.1% | remaining activity at 1.25 µM ([2]; Well no.=8360): 93.9%

CNS(=O)(=O)CCc1ccc2[nH]cc(C3CCN(C)CC3)c2c1 [Naratriptan (hydrochloride)]
remaining activity at 3.75 µM ([1]; Well no.=7385): 100% | remaining activity at 1.25 µM ([2]; Well no.=7385): 100%

OCCn1cc(-c2cnc3nnn(Cc4ccc5ncccc5c4)c3n2)cn1 [PF04217903]
remaining activity at 3.75 µM ([1]; Well no.=2937): 98.4% | remaining activity at 1.25 µM ([2]; Well no.=2937): 99.1%

CN(C)CC(c1ccc(O)cc1)C1(O)CCCCC1 (centres unmarked) [Desvenlafaxine]
remaining activity at 3.75 µM ([1]; Well no.=5164): 96.9% | remaining activity at 1.25 µM ([2]; Well no.=5164): 94.5%

CC(C)NCC(O)c1ccc(N)c(C#N)c1 (centres unmarked) [Cimaterol]
remaining activity at 3.75 µM ([1]; Well no.=1779): 99.7% | remaining activity at 1.25 µM ([2]; Well no.=1779): 102%

COc1ccnc(C[S+]([O-])c2nc3cc(OC(F)F)ccc3[nH]2)c1OC (centres unmarked) [sodium 5-(difluoromethoxy)-2-((3,4-dimethoxypyridin-2-yl)methylsulfinyl)benzo[d]imidazol-1-ide hydrate]
remaining activity at 3.75 µM ([1]; Well no.=5829): 96.9% | remaining activity at 1.25 µM ([2]; Well no.=5829): 95.3%

CC(C)=CCC/C(C)=C/CC/C(C)=C/CC/C=C(\C)CC/C=C(\C)CCC=C(C)C [Squalene]
remaining activity at 3.75 µM ([1]; Well no.=7255): 96.6% | remaining activity at 1.25 µM ([2]; Well no.=7255): 98.6%

CC(N)c1cccc(Cl)c1Cl (racemic)
remaining activity at 3.75 µM ([1]; Well no.=734): 94.8% | remaining activity at 1.25 µM ([2]; Well no.=734): 92.1%

c1ccc(CC2=NCCN2)cc1 [Tolazoline (hydrochloride)]
remaining activity at 3.75 µM ([1]; Well no.=6231): 107% | remaining activity at 1.25 µM ([2]; Well no.=6231): 104%

COC(=O)CC(NC(=O)OC(C)(C)C)C(=O)CF [BOC-D-FMK]
remaining activity at 3.75 µM ([1]; Well no.=6868): 93.9% | remaining activity at 3.75 µM ([1]; Well no.=7644): 95.4% | remaining activity at 1.25 µM ([2]; Well no.=6868): 95.7% | remaining activity at 1.25 µM ([2]; Well no.=7644): 101%

CC(C)(C)c1cnc(CSc2cnc(NC(=O)C3CCNCC3)s2)o1 [SNS-032]
remaining activity at 3.75 µM ([1]; Well no.=2845): 104% | remaining activity at 1.25 µM ([2]; Well no.=2845): 105%

NC(=O)N1CCC(CC(=O)N2CCC([C@H]3c4ncc(Br)cc4CCc4cc(Cl)cc(Br)c43)CC2)CC1 [Lonafarnib (SCH66336)]
remaining activity at 3.75 µM ([1]; Well no.=4781): 101% | remaining activity at 1.25 µM ([2]; Well no.=4781): 105%

CC1Cc2ccccc2N1NC(=O)c1ccc(Cl)c(S(N)(=O)=O)c1 (centres unmarked) [Indapamide]
remaining activity at 3.75 µM ([1]; Well no.=2224): 103% | remaining activity at 1.25 µM ([2]; Well no.=2224): 98.6%

CC(C)CCN1c2nc(Nc3cc(F)c(O)c(F)c3)ncc2N(C)C(=O)C1C (centres unmarked) [BI-D1870]
remaining activity at 3.75 µM ([1]; Well no.=2787): 104% | remaining activity at 1.25 µM ([2]; Well no.=2787): 101%

CCCCCCCC/C=C\CCCCCCCC(=O)NCc1ccc(O)c(OC)c1 [Olvanil]
remaining activity at 3.75 µM ([1]; Well no.=5771): 90% | remaining activity at 1.25 µM ([2]; Well no.=5771): 94.2%

Cc1nnc2ccc(-c3cccc(C(F)(F)F)c3)nn12 [3-Methyl-6-(3-[trifluoromethyl]phenyl)-1,2,4-triazolo[4,3-b]pyridazine]
remaining activity at 3.75 µM ([1]; Well no.=828): 105% | remaining activity at 1.25 µM ([2]; Well no.=828): 106%

C[C@H]1C/C=C/[C@H]2[C@@H]3O[C@]3(C)[C@@H](C)[C@H]3[C@H](Cc4ccccc4)NC(=O)[C@]32OC(=O)O/C=C/[C@@](C)(O)C1=O [Cytochalasin E]
remaining activity at 3.75 µM ([1]; Well no.=3627): 103% | remaining activity at 1.25 µM ([2]; Well no.=3627): 101%

COc1cc2c(cc1OC)[C@H]1CC(=O)[C@H](CC(C)C)CN1CC2 (racemic) [Tetrabenazine (Racemate)]
remaining activity at 3.75 µM ([1]; Well no.=8692): 93.1% | remaining activity at 1.25 µM ([2]; Well no.=8692): 95.2%

c1ccc(/N=N/c2ccccc2)cc1 [Azobenzene]
remaining activity at 3.75 µM ([1]; Well no.=8080): 101% | remaining activity at 1.25 µM ([2]; Well no.=8080): 102%

Cn1nc2c3c(cccc31)C(=O)c1ccccc1-2 [JNK Inhibitor, Negative Control]
remaining activity at 3.75 µM ([1]; Well no.=2514): 92.4% | remaining activity at 1.25 µM ([2]; Well no.=2514): 91%
